Legend:
Assay in all cases: biochemical
Format in all cases: binding
HLA DRB1*01:01 = HLA DRB1*01:01 (Homo sapiens, UniProt P01903+P01911, A100R/D57E/F55L/F60I/F76Y/I96L/L162R/M171V/P40L/Q125E/R42F/V115G/Y59C); conditions: binder threshold 1,000 nM, read-out: In vitro (IC50 nM) DRB1*01:01
HLA DRB1*03:01 = HLA DRB1*03:01 (Homo sapiens, UniProt P01903+P01911, A100K/A102G/A103R/A169T/F55Y/I96L/K41T/L162R/M171V/P40S/Q125H/Q178H/Q39Y/R42S/S66N/T106N/T262R/W38E/Y61H); conditions: binder threshold 1,000 nM, read-out: In vitro (IC50 nM) DRB1*03:01
HLA DRB1*03:01, sequence (P01903 26-254, other chains not shown): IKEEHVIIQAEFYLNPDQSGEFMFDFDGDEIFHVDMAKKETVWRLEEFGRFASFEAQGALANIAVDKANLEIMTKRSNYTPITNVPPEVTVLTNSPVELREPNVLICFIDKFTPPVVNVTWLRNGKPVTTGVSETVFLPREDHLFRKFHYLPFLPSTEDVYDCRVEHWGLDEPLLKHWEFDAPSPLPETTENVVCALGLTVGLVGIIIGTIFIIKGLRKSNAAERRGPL
HLA DRB1*04:01 = HLA DRB1*04:01 (Homo sapiens, UniProt P01903+P01911, A100K/A169T/F76Y/I96L/K127E/L162R/M171V/N62H/P40V/Q125Y/R42H/S133A/S149N/S66Y/V115G/V209L/W38E); conditions: binder threshold 1,000 nM, read-out: In vitro (IC50 nM) DRB1*04:01
HLA DRB1*04:05 = HLA DRB1*04:05 (Homo sapiens, UniProt P01903+P01911, A100R/A169T/D86S/F76Y/I96L/K127E/L162R/M171V/N62H/P40V/Q125Y/R42H/S133A/S149N/S66Y/V115G/V209L/W38E); conditions: binder threshold 1,000 nM, read-out: In vitro (IC50 nM) DRB1*04:05
HLA DRB1*07:01 = HLA DRB1*07:01 (Homo sapiens, UniProt P01903+P01911, A100R/A102G/A103Q/D57E/D86V/E43K/F76Y/K127E/L162R/M171V/P40G/Q125H/Q99D/R33Q/R42Y/R54Q/S133A/S66F/T210M/V115G/Y107V/Y59L/Y89S); conditions: binder threshold 1,000 nM, read-out: In vitro (IC50 nM) DRB1*07:01
HLA DRB1*08:02 = HLA DRB1*08:02 (Homo sapiens, UniProt P01903+P01911, A100R/A103L/A169T/F76Y/H45Y/I96F/K41T/L162R/M171V/P40S/Q125H/Q178H/Q39Y/Q99D/R218S/R42G/S66Y/V115G/W38E); conditions: binder threshold 1,000 nM, read-out: In vitro (IC50 nM) DRB1*08:02
HLA DRB1*09:01 = HLA DRB1*09:01 (Homo sapiens, UniProt P01903+P01911, A100R/A103E/D57H/D86V/F55Y/F60I/F76Y/I96F/K127E/L162R/M171V/P40D/Q125H/Q99R/R33Q/R42F/S133A/S66N/T210M/V115G/W38K/Y107V/Y59G/Y89S); conditions: binder threshold 1,000 nM, read-out: In vitro (IC50 nM) DRB1*09:01
HLA DRB1*11:01 = HLA DRB1*11:01 (Homo sapiens, UniProt P01903+P01911, A100R/A169T/A87E/I96F/K41T/L162R/M171V/P40S/Q125H/Q178H/Q39Y/Q99D/R42S/S66Y/T262R/V115G/W38E); conditions: binder threshold 1,000 nM, read-out: In vitro (IC50 nM) DRB1*11:01
HLA DRB1*11:01, sequence (P01903 26-254, other chains not shown): as above
HLA DRB1*12:01 = HLA DRB1*12:01 (Homo sapiens, UniProt P01903+P01911, A100R/A169T/D57E/D86V/F55L/H45Y/K41T/L162R/M171V/P40S/Q125H/Q178H/Q39Y/Q99D/R42G/S66L/T262R/V114A/V67L/W38E/Y59H/Y61H/Y89S); conditions: binder threshold 1,000 nM, read-out: In vitro (IC50 nM) DRB1*12:01
HLA DRB1*15:01 = HLA DRB1*15:01 (Homo sapiens, UniProt P01903+P01911); conditions: binder threshold 1,000 nM, read-out: In vitro (IC50 nM) DRB1*15:01
HLA DRB1*13:02 = HLA DRB1*13:02 (Homo sapiens, UniProt P01903+P01911, A100E/A169T/K41T/L162R/M171V/P40S/Q125H/Q178H/Q39Y/Q99D/R42S/S66N/T262R/V115G/W38E/Y61H); conditions: binder threshold 1,000 nM, read-out: In vitro (IC50 nM) DRB1*13:02
HLA DRB1*13:02, sequence (P01903 26-254 limits assumed, other chains not shown): as the sequence (P01903 26-254, other chains not shown) above

Row | SMILES | IC50 (HLA DRB1*01:01) [nM] | IC50 (HLA DRB1*03:01) [nM] | IC50 (HLA DRB1*04:01) [nM] | IC50 (HLA DRB1*04:05) [nM] | IC50 (HLA DRB1*07:01) [nM] | IC50 (HLA DRB1*08:02) [nM] | IC50 (HLA DRB1*09:01) [nM] | IC50 (HLA DRB1*11:01) [nM] | IC50 (HLA DRB1*12:01) [nM] | IC50 (HLA DRB1*15:01) [nM] | IC50 (HLA DRB1*13:02) [nM]
1 | CC[C@H](C)[C@H](NC(=O)[C@@H]1CCCN1C(=O)[C@H](CCSC)NC(=O)[C@H](CC(C)C)NC(=O)[C@H](CC(C)C)NC(=O)[C@H](CO)NC(=O)[C@H](Cc1ccc(O)cc1)NC(=O)[C@H](Cc1ccc(O)cc1)NC(=O)[C@@H](N)CO)C(=O)N[C@@H](CC(C)C)C(=O)N[C@H](C(=O)N[C@@H](CC(C)C)C(=O)N[C@H](C(=O)N[C@@H](CCCNC(=N)N)C(=O)N[C@@H](C)C(=O)O)[C@@H](C)O)[C@@H](C)O [NSP12_48] | 7.7 | 9120 | 224 | 147 | 115 | 498 | 1550 | 73 | 1350 | 23 | –
2 | CC[C@H](C)[C@H](NC(=O)[C@H](CC(=O)O)NC(=O)[C@H](CS)NC(=O)[C@H](CCSC)NC(=O)[C@@H](NC(=O)[C@@H]1CCCN1C(=O)[C@H](CC(C)C)NC(=O)[C@H](CC(N)=O)NC(=O)[C@H](Cc1ccc(O)cc1)NC(=O)[C@H](CCCNC(=N)N)NC(=O)[C@@H](N)Cc1ccc(O)cc1)[C@@H](C)O)C(=O)N[C@@H](CCCNC(=N)N)C(=O)N[C@@H](CCC(N)=O)C(=O)N[C@@H](CC(C)C)C(=O)N[C@@H](CC(C)C)C(=O)O [Peptide 92] | 12000 | – | 5310 | 4640 | 1840 | – | 1490 | 8940 | 5120 | 2910 | –
3 | CSCC[C@H](NC(=O)[C@@H](NC(=O)[C@@H]1CCCN1C(=O)[C@H](CC(C)C)NC(=O)[C@H](CC(N)=O)NC(=O)[C@H](Cc1ccc(O)cc1)NC(=O)[C@H](CCCNC(=N)N)NC(=O)[C@H](Cc1ccc(O)cc1)NC(=O)[C@H](Cc1ccc(O)cc1)NC(=O)[C@H](CC(=O)O)NC(=O)[C@H](Cc1ccc(O)cc1)NC(=O)[C@H](CC(=O)O)NC(=O)[C@@H](N)CO)[C@@H](C)O)C(=O)N[C@@H](CS)C(=O)N[C@@H](CC(=O)O)C(=O)O [Peptide 91] | 6670 | – | 830 | 3280 | 549 | 3510 | 1430 | 18200 | 29600 | 1480 | 13600
4 | CC(C)C[C@H](NC(=O)[C@H](C)NC(=O)[C@H](CC(=O)O)NC(=O)[C@H](CCC(N)=O)NC(=O)[C@H](CC(=O)O)NC(=O)[C@H](CCC(=O)O)NC(=O)[C@@H](N)Cc1ccc(O)cc1)C(=O)N[C@@H](Cc1ccccc1)C(=O)N[C@@H](C)C(=O)N[C@@H](Cc1ccc(O)cc1)C(=O)N[C@H](C(=O)N[C@@H](CCCCN)C(=O)N[C@@H](CCCNC(=N)N)C(=O)N[C@@H](CC(N)=O)C(=O)N[C@H](C(=O)O)C(C)C)[C@@H](C)O [Peptide 105] | 16000 | 39400 | 3090 | – | 35 | 495 | 8570 | 21 | – | 480 | –
5 | CC(C)[C@H](NC(=O)[C@H](CO)NC(=O)[C@H](CC(N)=O)NC(=O)[C@H](C)NC(=O)[C@H](Cc1ccc(O)cc1)NC(=O)[C@H](C)NC(=O)[C@@H](NC(=O)[C@@H](NC(=O)[C@H](C)NC(=O)[C@H](CC(=O)O)NC(=O)CNC(=O)[C@H](CO)NC(=O)[C@@H](N)CO)[C@@H](C)O)[C@@H](C)O)C(=O)N[C@@H](Cc1ccccc1)C(=O)N[C@@H](CC(N)=O)C(=O)O [Peptide 137] | 1800 | – | 5180 | 27200 | 3970 | – | 197 | 15900 | 22700 | 567 | –
6 | CC(C)C[C@H](NC(=O)[C@H](CCCNC(=N)N)NC(=O)[C@H](Cc1ccc(O)cc1)NC(=O)[C@H](Cc1ccccc1)NC(=O)[C@H](CCCNC(=N)N)NC(=O)[C@H](Cc1c[nH]cn1)NC(=O)[C@H](CO)NC(=O)[C@H](CC(C)C)NC(=O)[C@H](CO)NC(=O)[C@H](CS)NC(=O)[C@H](CS)NC(=O)[C@@H](NC(=O)[C@@H](NC(=O)[C@H](Cc1c[nH]cn1)NC(=O)[C@@H](N)CCCCN)[C@@H](C)O)[C@@H](C)O)C(=O)O [NSP12_129] | 279 | 916 | 613 | 644 | 56 | 1010 | 286 | 235 | 59 | 447 | 1170
7 | CC(C)C[C@H](NC(=O)[C@H](Cc1ccc(O)cc1)NC(=O)[C@H](C)NC(=O)[C@H](Cc1ccc(O)cc1)NC(=O)[C@H](Cc1ccccc1)NC(=O)[C@H](CCC(=O)O)NC(=O)[C@H](CC(N)=O)NC(=O)[C@@H](NC(=O)[C@H](Cc1ccccc1)NC(=O)[C@H](CC(=O)O)NC(=O)[C@@H](NC(=O)[C@H](CC(=O)O)NC(=O)[C@@H](NC(=O)[C@@H](N)CC(=O)O)C(C)C)[C@@H](C)O)C(C)C)C(=O)N[C@@H](CCCNC(=N)N)C(=O)O [Peptide 148] | 856 | 28500 | 16900 | – | – | 2200 | 6950 | 949 | – | 1180 | –
8 | CC[C@H](C)[C@H](NC(=O)[C@@H]1CCCN1C(=O)[C@H](CCSC)NC(=O)[C@@H](N)CC(C)C)C(=O)N[C@@H](CC(C)C)C(=O)N[C@H](C(=O)N[C@@H](CC(C)C)C(=O)N[C@H](C(=O)N[C@@H](CCCNC(=N)N)C(=O)N[C@@H](C)C(=O)N[C@@H](CC(C)C)C(=O)N[C@H](C(=O)N[C@@H](C)C(=O)N[C@@H](CCC(=O)O)C(=O)N[C@@H](CO)C(=O)O)[C@@H](C)O)[C@@H](C)O)[C@@H](C)O [NSP12_49] | 136 | 12100 | 20 | 367 | 15 | 283 | 123 | 37 | 131 | 37 | 409
9 | CC(C)C[C@H](NC(=O)[C@H](C)NC(=O)[C@H](CCCNC(=N)N)NC(=O)[C@@H](NC(=O)[C@H](CC(C)C)NC(=O)[C@@H](N)[C@@H](C)O)[C@@H](C)O)C(=O)N[C@H](C(=O)N[C@@H](C)C(=O)N[C@@H](CCC(=O)O)C(=O)N[C@@H](CO)C(=O)N[C@@H](Cc1c[nH]cn1)C(=O)N[C@H](C(=O)N[C@@H](CC(=O)O)C(=O)N[C@H](C(=O)N[C@@H](CC(=O)O)C(=O)O)[C@@H](C)O)C(C)C)[C@@H](C)O [NSP12_50] | 2100 | 1640 | 4.1 | 99 | 14 | 501 | 59 | 301 | 4490 | 1290 | –
